Results published in patent US10363229B2, “Methods and compositions for the treatment of cancer” (priority 2009, dated 2019).

How the values were obtained:
melanoma cells [1] = test: Senescence assay (β-galactosidase staining) and arborization; assay type: cell-based, mouse
Procedure: Senescence was assessed with the Senescence Cells Histochemical Staining Kit (Sigma).
During the first 2-3 weeks of incubating melanoma cells in 2% methyl sulfone, replacement of the 2% methyl sulfone medium with medium without drug reversed the phenotypes described above. Re-adding 2% methyl sulfone to the cells re-induced the non-malignant phenotypes. This cycle of reversal occurred until the cells were incubated with 2% methyl sulfone for more than three weeks. […] As a further test, we detached senescent cells from the culture dish by trypsinization and replated the cells in medium without methyl sulfone.
Mature melanocytes assume a morphology that is similar to neuronal cells by having a small area of cytoplasm surrounding the nucleus and long extensions called arbors. The primary function of melanocytes is to produce melanin and package the melanin in vesicles called melanosomes. Melanosomes are then transported to the tips of melanocytes arbors. These tips are phagocytized by keratinocytes, cells that sit near the skin's surface, and the newly acquired melanosomes form an umbrella-like shield around the nuclei of keratinocytes to protect these cells' DNA from UV-inducing mutations.

[2] = 20° C.; cited from earlier work
[3] = tested on: Mouse breast cancer cells (66Cl-1); test: Effects of methyl sulfone on estrogen receptor-negative breast cancer cells; assay type: cell-based
Procedure: Cloudman S-91 mouse melanoma cells (sub-clone M-3, CCL 53.1; American Type Culture Collection, Rockville, Md.) were grown in RMPI medium supplemented with 10% fetal bovine serum (Invitrogen, Inc) and 5% penicillin-streptomycin (Invitrogen, Inc). Mouse breast cancer cells (66Cl-1; American Type Culture Collection, Rockville, Md.) that are estrogen-receptor negative were grown in DMEM medium supplemented with 10% fetal bovine serum (Invitrogen, Inc) and 5% penicillin/streptomycin (Invitrogen, Inc). Human T-cell leukemic lymphocytes (CEM; American Type Culture Collection, Rockville, Md.) were grown in MEM medium supplemented with 7% fetal calf serum. Cultures were passaged twice a week. […]
Cells were plated onto sterile 12 mm coverslips in 35 mm tissue culture plates and incubated at 37° C., 5% CO2. After 24 hours, 2% methyl sulfone in medium or medium alone was added the plates and incubated at 37° C., 5% CO2 for 48 and 72 hrs. BrdU (Molecular Probes, Eugene, Oreg., USA; diluted ⅓ in RPMI medium) was added to each plate for 60 minutes at 37° C., 5% CO2. Coverslips were transferred to porcelain holders, washed with PBS, fixed in methanol/acetone (1:1), washed with PBS, and incubated in 5% BSA/PBS for 30 minutes at room temperature. To denature DNA, coverslips were placed in 0.1N HCL/1% Triton X-100 for 10 minutes at room temperature. After washing in PBS, cells were incubated with Alexa Fluor 488 anti-BrdU antibody (Molecular Probes, Eugene, Oreg.; diluted 1/20 in 5% BSA/PBS) for 60 minutes at room temperature. Cells were washed in PBS and incubated with Hoechst (diluted 1/1000 in PBS) in the dark at room temperature. After washing in PBS, cells were dipped in dH2O and drained onto Kim Wipes. SlowFade mounting medium (Molecular Probes, Eugene, Oreg.) was added to a glass slide and coverslips were placed face down onto slides and sealed with clear nail polish. Cells were viewed at the Center for Cell Analysis and Modeling, University of Connecticut Health Center, Farmington, Conn., with an Axioplan CCD Microscope equipped with a 40×1.3 NA FL objective lens, equipped with a Photometrics PXL-EEV37 high speed digital cooled CCD camera. Molecular Devices Metamorph was used for image acquisition.
Cells were plated on 8-35 mm plates that contained base agar with and without 2% methyl sulfone. To make base agar, 1% agar (DNA grade; Difco Bacto Agar; Becton Dickenson and Company, Sparks, Md.), was mixed in water at room temperature, melted in a microwave, and cooled to 40° C. before using. For drug plates, 1% agar was combined (1:1) with 4% methyl sulfone in 2×RPMI medium with sodium bicarbonate supplemented with 10% FBS and 5% penicillin/streptomycin. For control plates, 1% agar was combined (1:1) with 2×RMPI medium. Agar +/−2% methyl sulfone was added to appropriate 35 mm tissue culture plates and stored overnight at 4° C. The next day top agar and cells were placed on top of the base agar. Top agar was made with 0.66% agar in water. The agar was melted in a microwave, cooled, and stored at 40° C. 2×RPMI medium and 4% methyl sulfone was also stored at 40° C. Cells were trypsinized and counted for a final concentration of 5×10^3 cells/plate. Cell counts were adjusted to 2×10^5 cells/ml and 0.05 ml of the cell suspension was added to 15 ml centrifuge tubes (2 each). Base agar plates were removed from 4° C. and allowed to warm to room temperature for approximately 30 minutes prior to plating. For plating control cells, 2×RPMI medium and 0.66% agar were added to the tube of cell suspension, gently mixed, and placed on top of control base agar plates. For plating cells in 2% methyl sulfone, 4% methyl sulfone (in 2×RMPI medium) and 0.66% agar was added to the tube of cell suspension, mixed gently, and placed on top of the drug base agar plates. Cells were incubated in the 37° C., 5% CO2 incubator for 10-14 days. Plates were stained with 0.005% crystal violet for 1 hour. Colonies were photographed and counted with a dissecting microscope. […]

melanoma cells [4] = test: Cell wounding / wound healing; assay type: cell-based, mouse; settings: 2% methyl sulfone
Procedure: Cells were cultured to approximately 90% confluence in 35 mm tissue culture plates. Methyl sulfone (2%) was added to half the plates and 48 hours later cells were wounded with a sterile plastic 1000 μl pipette tip. Cells were washed two times with medium to remove cell debris and incubated at 37° C. over night in RMPI medium +/−2% methyl sulfone. After 72 hours, wound edges were photographed and recorded with a Nikon TE300 inverted microscope (Nikon) equipped with a 10×0.25 NA Plan Achromat objective lens. Time-series (5 min long) of phase contrast images were acquired at a video rate (1 frame/3s) with a Watec-902B CCD video camera (Watec Corp., Japan) via stream acquisition option of Metamorph image acquisition and analysis software (Universal Imaging Corp., Downington, Pa.). During the recordings, cells were kept at 37° C. and 10 mM Hepes. Time series and photographs of cells +/−2% methyl sulfone were obtained every 24 hours for up to 120 hrs.
We tested whether melanoma cells treated with 2% methyl sulfone would function properly in the process of wound healing. As described in herein, control melanoma cells and cells treated with 2% methyl sulfone were grown to confluence. Scraping a layer of confluent cells with a plastic pipette tip formed wounds. Live cell video microscopy was used to monitor migration of cells into the wound.

For methyl sulfone, the “morphology of senescent melanoma cells (arborization)” value (melanoma cells [1]; 2% methyl sulfone) was “took on the morphology of mature melanocytes”, the “survival of arborized cells in culture” value (melanoma cells [1]; 2% methyl sulfone) was “at least two months” and the “melanoma cells senescent (β-galactosidase activity)” value (melanoma cells [1]; 2% methyl sulfone for more than three weeks) was “greater than 95%”. The “senescence after replacing drug medium with control medium” value (melanoma cells [1]; senescent cells, 2% methyl sulfone removed) was “remained senescent”, the approximate water solubility [2] was about 150 mg/mL and the DNA synthesis ([3]; 2% methyl sulfone) was “markedly reduced”. The “cell growth anchorage dependence” value ([3]; 2% methyl sulfone) was “anchorage-dependent”, the contact inhibition ([3]; 2% methyl sulfone) was “contact inhibited” and the “migration of cells through an extracellular matrix” value ([3]; 2% methyl sulfone) was “inhibited”. The mitochondrial activity ([3]; 2% methyl sulfone) was “decreased”, the senescence ([3]; 2% methyl sulfone) was “became senescent” and the wound healing ([3]; 2% methyl sulfone) was “proceeded normally”. For the same substance, the “methyl sulfone concentration inducing apoptosis in breast cancer cells” value ([3]; breast cancer cells) was “above 2%”, the “behaviour when the wound was covered” value (melanoma cells [4]) was “stopped migrating and once again became contact inhibited” and the “rate of migration into the wound area” value (melanoma cells [4]) was “slower rate than control cells”.
